Experiment [1] relates to 8305C (Thyroid Gland Carcinoma). Kind of experiment: Bliss excess, mean over the matrix (fraction); higher = more synergy. The method, boiled down: (§1)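 After 24 hours at 37°C and 5% CO2 in 1536-well plates, cells in DMEM/F12 or RPMI plus 10% FBS received two-drug dose matrices for 72 hours. Viability came from CellTiter-Glo 2.0 luminescence and was scaled as inhibition, anchored at 0 by vehicle wells and at 1 by blank wells. Combination Emax is taken as the second-highest inhibition in the matrix, and Bliss excess as the observed combination effect less EA + EB − EA·EB, with EA and EB the single-agent effects.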

In experiment [2] the test system is NCI-H2795 (Mesothelioma). The experiment is described as above. An outline of the steps:
as §1

Experiment [3] relates to NCI-H69 (Small Cell Lung Carcinoma). The description is as above. An outline of the steps: as §1
The test system of a further experiment is HMV-II (Melanoma). The description is as above. An outline of the steps: as §1
Experiment [4] relates to SUP-T1 (T-Lymphoblastic Leukemia). Described as above. An outline of the steps:
as §1

In experiment [5] the test system is LU-139 (Small Cell Lung Carcinoma). The description is as above. An outline of the steps: as §1
The test system of the next experiment is Mewo (Melanoma). Described as above. An outline of the steps: as §1
The test system of experiment [6] is RT-112 (Bladder Carcinoma). The experiment is described as above. An outline of the steps:
as §1

Experiment [7] relates to K5 (Thyroid Gland Carcinoma). The experiment is described as above. An outline of the steps:
as §1

In experiment [8] the test system is SW1271 (Small Cell Lung Carcinoma). Described as above. The method, boiled down: as §1
The test system of experiment [9] is CAL-54 (Kidney Carcinoma). The experiment in a line: combination Emax (second highest fraction inhibited in the dose matrix, 72 h); higher = more inhibition; extreme values may be limits of the assay. The method, boiled down: as §1
The test system of experiment [10] is HARA (Squamous Cell Lung Carcinoma). Described as above. The method, boiled down: as §1
The test system of experiment [11] is NCI-H2795 (Mesothelioma). Described as above. An outline of the steps:
as §1

Experiment [12] relates to MDA-MB-468 (Breast Carcinoma). The experiment is described as above. An outline of the steps: as §1
For another experiment, the system named is NCI-H28 (Mesothelioma). Described as above. The method, boiled down:
as §1

In experiment [13] the test system is LoVo (Colorectal Carcinoma). The experiment is described as above. The method, boiled down:
as §1

The test system of experiment [14] is HDLM-2 (Hodgkin's Lymphoma). Described as above. An outline of the steps:
as §1

Another experiment relates to NCI-H2461 (Mesothelioma). The description is as above. The method, boiled down: as §1
Experiment [15] deals with SUP-T1 (T-Lymphoblastic Leukemia). The experiment is described as above. The method, boiled down:
as §1

Experiment [16] relates to CAPAN-1 (Pancreatic Carcinoma). The description is as above. The method, boiled down: as §1
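Throughout, for Bliss excess, mean over the matrix: after 72 h of two-drug dosing.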

With `CN(CCO)CC[C@H](CSc1ccccc1)Nc1ccc(S(=O)(=O)NC(=O)c2ccc(N3CCC([C@@H](O)c4ccccc4-c4ccc(Cl)cc4)CC3)cc2)cc1S(=O)(=O)C(F)(F)F` [AZD4320] + Nc1ccn([C@@H]2O[C@H](CO)[C@@H](O)C2(F)F)c(=O)n1 [Gemcitabine] (first compound max 1 µM, 7x7, partner max 0.3 µM), the Bliss excess was 0.072 in experiment [1]; -0.0094 in the experiment on NCI-H2795 (Mesothelioma) [2]; -0.0064 in experiment [3]; -0.0109 in the experiment with HMV-II (Melanoma); 0.0225 in experiment [4]; 0.0388 in experiment [5]. Also, the Bliss excess with Mewo (Melanoma) was 0.0099; in experiment [6], -0.0057; in experiment [7], 0.0121; in experiment [8] it was 0.0692. Besides, the “combination Emax” value in experiment [9] turned out to be 0.838; in experiment [10], 0.8; with NCI-H2795 (Mesothelioma) [11] it was 0.872; in experiment [12] it was 0.799; with NCI-H28 (Mesothelioma), 0.797; in [13], 0.7. Further, the “combination Emax” value was found to be 0.935 in experiment [14], 0.641 in the experiment on NCI-H2461 (Mesothelioma), 0.846 in experiment [15] and 0.828 in [16].

Consider `O=C(c1cc(Cc2n[nH]c(=O)c3ccccc23)ccc1F)N1CCN(C(=O)C2CC2)CC1` [Olaparib] + CN(CC[C@H](CSC1=CC=CC=C1)NC2=C(C=C(C=C2)S(=O)(=O)NC(=O)C3=CC=C(C=C3)N4CCC(CC4)[C@H](C5=CC=CC=C5C6=CC=C(C=C6)Cl)O)S(=O)(=O)C(F)(F)F)CCO [AZD4320] (first compound max 10 µM, 7x7, partner max 1 µM), for which the Bliss excess in experiment [1] is -0.0062; with NCI-H2795 (Mesothelioma) [2] it was -0.0086; in experiment [3], 0.0294; in the experiment with HMV-II (Melanoma), -0.0537; in experiment [4], -0.0301; in experiment [5], 0.0154. Further, the Bliss excess with Mewo (Melanoma) is -0.0615; in experiment [6] it was -0.0305; in [7] it was -0.0148; in experiment [8], -0.0291. For the same compound, the “combination Emax” value worked out at 0.236 in experiment [9]; 0.162 in experiment [10]; 0.451 in the experiment on NCI-H2795 (Mesothelioma) [11]; 0.684 in [12]; 0.168 in the experiment on NCI-H28 (Mesothelioma); 0.187 in [13]. Besides, the “combination Emax” value in experiment [14] came out at 0.878; in the experiment on NCI-H2461 (Mesothelioma), 0.17; in [15], 0.602; in experiment [16], 0.663.

In the case of `C[C@@H](Oc1cc(-c2cnn(C3CCNCC3)c2)cnc1N)c1c(Cl)ccc(F)c1Cl` [Crizotinib] + Cn1cnc2c(F)c(Nc3ccc(Br)cc3Cl)c(C(=O)NOCCO)cc21 [Selumetinib] (first compound max 10 µM, 7x7, partner max 10 µM), the Bliss excess was 0.0017 in experiment [1]; -0.0974 in the experiment on NCI-H2795 (Mesothelioma) [2]; -0.0607 in [3]; -0.0273 in the experiment on HMV-II (Melanoma); -0.0501 in [4]; -0.0615 in experiment [5]. For the same compound, the Bliss excess in the experiment on Mewo (Melanoma) was -0.0431; in [6] it was -0.043; in experiment [7], -0.0788; in experiment [8] it was 0.0503. In addition, the “combination Emax” value amounted to 0.565 in experiment [9]; 0.59 in [10]; 0.918 in the experiment on NCI-H2795 (Mesothelioma) [11]; 0.673 in [12]; 0.438 in the experiment on NCI-H28 (Mesothelioma); 0.557 in experiment [13]. In addition, the “combination Emax” value in experiment [14] was found to be 0.193; in the experiment with NCI-H2461 (Mesothelioma) it was 0.56; in experiment [15], 0.823; in experiment [16], 0.571.

`C[C@@H]1COCCN1c1cc(C2([S@](C)(=N)=O)CC2)nc(-c2ccnc3[nH]ccc23)n1` [AZD6738] + Nc1ccn([C@@H]2O[C@H](CO)[C@@H](O)C2(F)F)c(=O)n1 [Gemcitabine] (first compound max 10 µM, 7x7, partner max 0.3 µM): the Bliss excess in [1] was 0.0252; in the experiment on NCI-H2795 (Mesothelioma) [2], -0.0533; in experiment [3], 0.035; with HMV-II (Melanoma), -0.0112; in experiment [4], 0.0041; in experiment [5] it was 0.0146. Moreover, the Bliss excess with Mewo (Melanoma) amounted to 0.0475; in experiment [6], 0.147; in [7], 0.034; in experiment [8], 0.004. For the same compound, the “combination Emax” value in [9] worked out at 0.819; in experiment [10], 0.927; with NCI-H2795 (Mesothelioma) [11] it was 0.874; in experiment [12], 0.767; in the experiment on NCI-H28 (Mesothelioma), 0.695; in [13] it was 0.846. For the same compound, the “combination Emax” value in experiment [14] was found to be 0.77; with NCI-H2461 (Mesothelioma), 0.714; in [15], 0.852; in experiment [16], 0.684.

With `C[C@@H]1COCCN1c1cc(C2([S@](C)(=N)=O)CC2)nc(-c2ccnc3[nH]ccc23)n1` [AZD6738] + C1CC(C1)(C(=O)[O-])C(=O)[O-].N.N.[Pt+2] [Carboplatin] (first compound max 10 µM, 7x7, partner max 10 µM), the Bliss excess was -0.046 in experiment [1]; -0.0819 in the experiment on NCI-H2795 (Mesothelioma) [2]; -0.032 in experiment [3]; -0.0067 in the experiment with HMV-II (Melanoma); -0.0298 in [4]; 0.0013 in experiment [5]. Further, the Bliss excess with Mewo (Melanoma) is -0.0192; in experiment [6], -0.0217; in experiment [7] it was -0.0728; in [8] it was -0.0547. The “combination Emax” value in [9] was 0.695; in experiment [10] it was 0.853; in the experiment with NCI-H2795 (Mesothelioma) [11], 0.573; in experiment [12] it was 0.583; in the experiment with NCI-H28 (Mesothelioma) it was 0.479; in [13], 0.8. For the same compound, the “combination Emax” value in [14] was 0.472; in the experiment with NCI-H2461 (Mesothelioma), 0.646; in [15], 0.719; in experiment [16], 0.384.

For the origin of these results see the supplement of paper PMC11061612.
